# Laboratory results as given in patent US4987150A, “Agent for inhibiting binding of 5-dihydro-testosterone with androgen receptor as well as process for obtaining same” (Kabushiki Kaisha Vitamin Kenkyusho, priority 1987, dated 1991).
# Molecular target: T1, androgen receptor (Mesocricetus auratus, UniProt A0A1U7QL32)
# T1 construct: a sebaceous gland in flank organ was excised and homogenized; from tissue; host or cells: male Syrian hamster flank organ sebaceous gland, 16 hours after castration; supernatant of homogenate centrifuged at 30,000 rpm for 1 hour
# T1 sequence (A0A1U7QL32 1-900): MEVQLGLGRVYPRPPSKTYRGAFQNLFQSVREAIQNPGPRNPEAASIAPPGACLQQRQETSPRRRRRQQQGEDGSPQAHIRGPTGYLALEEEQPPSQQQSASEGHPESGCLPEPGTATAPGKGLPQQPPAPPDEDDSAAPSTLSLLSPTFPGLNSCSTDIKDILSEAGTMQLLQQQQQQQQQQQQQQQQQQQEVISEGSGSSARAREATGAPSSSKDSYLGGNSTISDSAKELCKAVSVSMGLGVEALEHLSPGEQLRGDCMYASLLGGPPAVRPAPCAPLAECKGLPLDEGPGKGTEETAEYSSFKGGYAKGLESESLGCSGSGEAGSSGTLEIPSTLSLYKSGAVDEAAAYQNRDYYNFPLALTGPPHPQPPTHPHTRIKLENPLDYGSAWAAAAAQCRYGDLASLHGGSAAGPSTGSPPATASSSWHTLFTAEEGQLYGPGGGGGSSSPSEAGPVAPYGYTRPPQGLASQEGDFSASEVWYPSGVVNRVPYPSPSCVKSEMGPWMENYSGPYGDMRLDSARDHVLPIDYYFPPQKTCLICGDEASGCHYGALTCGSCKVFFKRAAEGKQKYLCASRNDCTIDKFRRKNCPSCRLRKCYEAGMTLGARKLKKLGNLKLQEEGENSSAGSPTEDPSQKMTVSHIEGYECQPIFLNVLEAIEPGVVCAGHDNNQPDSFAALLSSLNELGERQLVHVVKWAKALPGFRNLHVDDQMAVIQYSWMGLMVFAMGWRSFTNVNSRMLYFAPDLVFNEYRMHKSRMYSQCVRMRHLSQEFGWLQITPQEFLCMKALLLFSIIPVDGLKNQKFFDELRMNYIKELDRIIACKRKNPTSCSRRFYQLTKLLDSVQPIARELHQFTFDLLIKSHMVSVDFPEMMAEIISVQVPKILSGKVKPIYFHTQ
# Assay: Inhibition of [3H]R1881 binding with androgen receptor (Pharmacological Test Example 1; also Test Example 2)
# Design: species or system male Syrian hamster (sebaceous gland in flank organ)
# Settings: chemically synthesized xanthones; calculated from inhibition rate; 1 nM [3H]R1881, 0° C., 16 hours; read-out: Concentration for 50% Inhibition
# Description: (a) Preparation of androgen receptor
# From a male Syrian hamster 16 hours after castration, a sebaceous gland in flank organ was excised and homogenized in 5-10 times (volume) of 50 mM-Tris-HCl buffer (pH 7.4) containing 1.5 mM-EDTA, 1 mM-DTT, 10 mM-Na2 MoO4, and 10% (w/v) glycerol. The homogenate was centrifuged at 3,000 rpm and 0°-4° C. for 10 minutes to obtain the supernatant, which was further centrifuged at 30,000 rpm and 0°-4° C. for 1 hour to obtain the supernatant to be employed as androgen receptor.
# (b) Determination of inhibitory activity
# Then the mixture was added with a suspension (500 μl) of 0.5% charcoal and 0.05% dextran T-70. After standing at 0° C. for 10 minutes, the mixture was centrifuged at 3,000 rpm for 10 minutes. The supernatent (300 μl) was mixed with a liquid scintillator to measure the radioactivity due to binding of [^3 H]R1881 with the androgen receptor in scintillation counter. The inhibition rate of each extract was calculated according to the following equation.
# Inhibition (%)=[(c-s)/c]×100 […]
# c: specific binding amount of [^3 H]R1881 with androgen receptor without addition of test sample; and s: specific binding amount of [^3 H]R1881 with androgen receptor with addition of the test sample.
row,Structure (SMILES),IC50
1,O=c1c2c(O)cc(O)cc2oc2c(O)ccc(O)c12 [A],8 µM
2,O=c1c2c(O)cc(O)cc2oc2cc(O)cc(O)c12 [B],5.1 µM
3,O=c1c2ccc(O)cc2oc2c(O)ccc(O)c12 [C],1.8 µM
4,O=c1c2cccc(O)c2oc2cc(O)cc(O)c12 [D],34 µM
5,O=c1c2ccc(O)cc2oc2cc(O)cc(O)c12 [E],4.1 µM
6,O=c1c2c(O)cccc2oc2cc(O)cc(O)c12 [F],20 µM
7,O=c1c2ccccc2oc2cc(O)cc(O)c12 [G],53 µM
8,O=c1c2ccc(O)cc2oc2cccc(O)c12 [H],7.6 µM

# Same assay, conditions: statement in words
row,Structure (SMILES),inhibition of binding of 5α-DHT with androgen receptor
1,"O=c1c2c(O)cc(O)cc2oc2c(O)ccc(O)c12 [Test sample A, 1,3,5,8-Tetrahydroxyxanthone]",shows the inhibition of binding of 5α-DHT with androgen receptor

# System: 5α-reductase
# Assay: not given
# Settings: reported in Jap. Pat. No. 60-126218 (A); cited from earlier work
row,Structure (SMILES),inhibition of the activity of 5α-reductase
1,CC1(C)CC[C@]2(C(=O)O)CC[C@]3(C)C(=CC[C@@H]4[C@@]5(C)CC[C@H](O)C(C)(C)[C@@H]5CC[C@]43C)[C@@H]2C1 [oleanolic acid],showing the inhibition
